Here are results for four molecules from patent US20260345620A1, “IMPROVEMENTS IN OR RELATING TO COMPOSITIONS FOR TREATMENT OF LESIONS” (SYDERMA LTD, priority 2023, published 2026).

One data set deals with AK lesion. The experiment in a line: Split-scalp treatment of actinic keratoses with 5FU plus methylxanthine versus 5FU alone (Example 3). The data set is classed as in vivo, human. As to conditions: for AK lesion clearance / efficacy versus 5FU alone control: 0.5% w/v methylxanthine in combination with Efudix 5% 5FU. How it is done: P values below 0.05, denoting significance, are as marked.
Results are shown per individual patient.
All patients were treated solely on the scalp and were only treated on half of the scalp with the test compound and 5FU, while the other half was used as control, treated with 5FU alone. Separation between combination and 5FU only control was mostly done medially, with one patient having and anterior/posterior treatment setup. As in Example 2, the patients self-administered the test compound on the test region 10-20 minutes before applying the Efudix® cream containing 5% w/v 5FU. In application, 50-100 μL (1-2 drops) of the test compound solution was applied first in a thin water-based layer over the whole treated area evenly. 5-FU was applied 10-20 minutes later, via finger application, as per best practice and manufacturer's instructions. Patients applied the regimen at regular intervals, once daily. One fingertip unit (~0.5 g) was used for an equivalent of half the scalp area.

Data set [1] has as its system basal cell carcinoma. Description: Topical theobromine alone on basal cell carcinoma in person (Example 8, comparative). The data set is classed as in vivo, human. As to conditions: 0.5% theobromine solution once daily for 1 month. How it is done:
In another example a person with a clinical diagnosis of basal cell carcinoma was treated with 0.5% percent theobromine solution. In application, 50-100 μL (1-2 drops) of theobromine solution was applied in a thin water-based layer over the whole treated area evenly (up to 50 cm 2 area in total). Theobromine was applied once daily for 1 months. The patient was examined by a dermatologist before the treatment and one week after completion of the treatment.

The subject of data set [2] is basal cell carcinoma. Description: Topical theobromine alone on basal cell carcinoma in person (Example 7, comparative). The settings on record: 0.5% theobromine solution once daily for 2 months. It counts as in vivo, human. How it is done: In another example a person with a clinical diagnosis of basal cell carcinoma was treated with 0.5% percent theobromine solution. In application, 50-100 μL (1-2 drops) of theobromine solution was applied in a thin water-based layer over the whole treated area evenly (up to 50 cm 2 area in total). Theobromine was applied once daily for 2 months. At the end of the treatment, they were examined by a dermatologist.

The next data set deals with PARP. The settings on record: role: inhibitor; physiologically and clinically achievable conditions; cited from earlier work.
The conditions of data set [3]: cited from earlier work.
Data set [4] concerns actinic keratoses. Description: Topical theobromine alone on actinic keratoses on scalp of person (Example 9, comparative). It counts as in vivo, human. How it is done: In another experiment a person with an area of actinic keratoses on their scalp was treated with 0.5% theobromine solution once daily for 4 weeks. The theobromine solution was prepared in 25% ethanol and 50% glycerol, adjusted to pH 8 via 100 mM sodium hydrogen carbonate solution. Theobromine solution was stored at room temperature in the dark. In application, 50-100 μL (1-2 drops) of theobromine solution was applied first in a thin water-based layer over the whole treated area evenly.
(§1) The patient reported no discomfort with treatment: pain and soreness were reported by the patient to be 0/10 in areas treated with theobromine treatment.

For another data set, the system named is ATR. As to conditions: role: inhibitor; physiologically and clinically achievable conditions; cited from earlier work.
In data set [5] the test system is actinic keratoses. Description: Topical theobromine alone on actinic keratoses on nose of person (Example 10, comparative). It counts as in vivo, human. How it is done:
In another experiment a person with an area of actinic keratoses on their nose was treated with 0.5% theobromine solution once daily for 4 weeks. The theobromine solution was prepared in 25% ethanol and 50% glycerol, adjusted to pH 8 via 100 mM sodium hydrogen carbonate solution. Theobromine solution was stored at room temperature in the dark. In application, 50-100 μL (1-2 drops) of theobromine solution was applied first in a thin water-based layer over the whole treated area evenly.
as §1

In another data set the test system is ATM. The settings on record: role: inhibitor; physiologically and clinically achievable conditions; cited from earlier work.
In data set [6] the test system is basal cell carcinomas. The settings on record: topical; cited from earlier work.
The conditions of data set [7]: topical; percent of patients; cited from earlier work.
Data set [8] relates to actinic keratoses. The settings on record: topical; cited from earlier work.
Data set [9] concerns actinic keratoses. The experiment in a line: Split-area topical treatment of actinic keratoses on scalp of person (Example 1). The data set is classed as in vivo, human. How it is done: In one experiment a person with an actinic keratoses region on their scalp was treated with 5% 5-fluorouracil cream once daily for 30 days (as marked in FIG. 1, posterior region). Another area of actinic keratoses on their scalp (As marked on FIG. 1, anterior region) was treated with both 5% 5-fluorouracil cream once daily and 0.5% theobromine solution once daily for 30 days. The 5% 5-FU cream applied was a medically available cream from Mylan, commercially known as Efudix® cream. The theobromine solution was prepared in 25% ethanol and 50% glycerol, adjusted to pH 8 via 100 mM sodium hydrogen carbonate solution. Efudix® was stored as per manufacturer's instructions, at room temperature, and theobromine solution at room temperature in the dark. In application, 50-100 μL (1-2 drops) of theobromine solution was applied first in a thin water-based layer over the whole treated area evenly. 5-FU was applied 10-20 minutes later, via finger application, as per best practice and manufacturer's instructions. One fingertip unit (~0.5 g) was used for an equivalent of half the forehead area.
(§2) Redness and inflammation were assessed by the responsible physician.

In a further data set the test system is thymidylate synthase. As to conditions: role: inhibitor; cited from earlier work.
Data set [10] concerns actinic keratoses. The experiment in a line: Split-scalp topical treatment of actinic keratoses in person (Example 2). It counts as in vivo, human. How it is done:
Quantification is as described for Patient #2 in Table 1;
In another experiment a person with an actinic keratoses on their scalp was treated with 5% 5-fluorouracil cream 4× per week for 4 weeks (15 lesions, as marked in FIG. 2, left side of scalp). Another area of actinic keratoses on their scalp (16 lesions, as marked on FIG. 2, right side of scalp) was treated with both 5% 5-fluorouracil cream 4× per week and 0.5% theobromine solution 4× per week for 4 weeks. The 5% 5-FU cream applied was a medically available cream from Mylan, commercially known as Efudix® cream. The theobromine solution was prepared in 25% ethanol and 50% glycerol, adjusted to pH 8 via 100 mM sodium hydrogen carbonate solution. Efudix® was stored as per manufacturer's instructions, at room temperature, and theobromine solution at room temperature in the dark. In application, 50-100 μL (1-2 drops) of theobromine solution was applied first in a thin water-based layer over the whole treated area evenly. 5-FU was applied 10-20 minutes later, via finger application, as per best practice and manufacturer's instructions. One fingertip unit (~0.5 g) was used for an equivalent of half the forehead area.
as §2

Data set [11] concerns basal cell carcinomas. Description: Topical treatment of basal cell carcinomas in person (Example 4). The data set is classed as in vivo, human. The settings on record: one month after completing 1 month once daily treatment; 5% 5-FU with (2 lesions) or without (1 lesion) 0.5% theobromine. How it is done: In another example, a person with multiple basal cell carcinomas was treated with: 5% 5-fluorouracil (5-FU) cream alone (1 lesion, back, clinical diagnosis) or a combination of 5-FU cream and theobromine solution (2 lesions-biopsy confirmed basal cell carcinoma, right leg and basal cell carcinoma, left forearm, clinical diagnosis). The treatment was continued once daily for 1 month and 0.5% percent theobromine solution. In application, 50-100 μL (1-2 drops) of theobromine solution was applied in a thin water-based layer over the whole treated area evenly (up to 50 cm2 area in total). 5-FU was applied via finger application, as per best practice and manufacturer's instructions. One finger tip unit (0.5 g) was used to cover 1 lesion. 5FU was applied 30 min after theobromine. One month after completing treatment the patient was examined by a dermatologist. The lesions treated with 5FU and theobromine resolved and the lesion treated with 5FU persisted.

[12] abbreviates: 0.5% theobromine solution once daily for 4 weeks.
Where [13] appears, read: four weeks after completion of treatment.

Turning to `Cn1cnc2c1c(=O)[nH]c(=O)n2C` [theobromine], the “AK lesion clearance / efficacy versus 5FU alone control” value with AK lesion is “significantly improved AK lesion clearance”. Further, the “change in lesion size or appearance” value in the data set on basal cell carcinoma [1] is “no change in the lesion size or appearance”. In addition, the inflammation or pain entry in the data set on basal cell carcinoma [1] and in the data set with basal cell carcinoma [2] was “No evidence of inflammation or pain” each time. The “basal cell carcinoma outcome” value in the data set on basal cell carcinoma [1] (one week after completion) and in the data set on basal cell carcinoma [2] was “basal cell carcinoma persisted” each time. Moreover, the “change in lesion appearance” value with basal cell carcinoma [2] is reported as “no change in the lesion appearance”. Further, in the data set with PARP, the “inhibitory activity against PARP” value is “triple inhibitory activity (against ATM, ATR and PARP)”. Moreover, the solubility entry in [3] was “limited solubility”. Moreover, the “pain and soreness reported by the patient” value in the data set with actinic keratoses [4] (setting [12]) and in the data set on actinic keratoses [5] (setting [12]) was 0 /10 each time. Further, the “reduction in number of actinic keratoses” value in the data set on actinic keratoses [4] (setting [12]) and in the data set on actinic keratoses [5] (1 week after completion of 4 weeks treatment) was “No reduction in a number of actinic keratoses” each time. Further, the “discomfort reported by the patient” value with actinic keratoses [4] (after 4 weeks of treatment) and with actinic keratoses [5] (after 4 weeks of treatment) was “no discomfort” each time. Moreover, the redness or inflammation result in the data set with actinic keratoses [4] (after 4 weeks of treatment) and with actinic keratoses [5] (after 4 weeks of treatment) was “no redness or inflammation detected” each time. In the data set with ATR, the “inhibitory activity against ATR” value is “triple inhibitory activity (against ATM, ATR and PARP)”. The “inhibitory activity against ATM” value in the data set with ATM was “triple inhibitory activity (against ATM, ATR and PARP)”.

Regarding `CC(C)Cn1cnc2c(N)nc3ccccc3c21` [imiquimod], in the data set with basal cell carcinomas [6], the “efficacy for basal cell carcinomas” value was 70-80%. Besides, in [7], the “patients with painful, severe inflammatory reaction” value is 20-50%. In addition, the “efficacy for actinic keratoses” value with actinic keratoses [8] is listed as 50-60%.

Consider `O=c1[nH]cc(F)c(=O)[nH]1` [5-FU, 5-fluorouracil], for which, in the data set with actinic keratoses [9] (a week following cessation of treatment), the “inflammation and scaliness of treated area” value was “significant inflammation and scaly appearance”. The “pain and soreness reported by the patient” value in the data set with actinic keratoses [9] (after 30 days of once daily treatment, 5% 5-FU cream with or without 0.5% theobromine solution) was 9 /10; in the data set with actinic keratoses [10] (after 4 weeks, 4x per week, 5% 5-FU cream with or without 0.5% theobromine solution), 2 /10. Also, the “redness, soreness and inflammation assessed by physician” value in the data set on actinic keratoses [9] (after 30 days of treatment) and with actinic keratoses [10] (after 4 weeks of treatment) was “became inflamed” in each case. Further, the “discomfort reported by the patient” value in the data set on actinic keratoses [9] (during 30 days of treatment) is “significant discomfort”; in the data set on actinic keratoses [10] (during 4 weeks of treatment) it was “mild discomfort”. Further, in the data set on actinic keratoses [9] (setting [13]), the “clearance of the actinic keratosis lesion” value is recorded as “incomplete clearance”. For the same molecule, the “pain reported by the patient” value in the data set on actinic keratoses [9] (setting [13]) and in the data set with actinic keratoses [10] (setting [13]) was “no pain reported by the patient” in each case. The residual inflammatory reaction entry in the data set with actinic keratoses [9] (setting [13]) and with actinic keratoses [10] (setting [13]) was “no visible residual inflammatory reaction” each time. Also, the “reduction in size of actinic keratosis lesion” value with actinic keratoses [9] (four weeks after completion of treatment, ImageJ image analysis) is “over 30%”. For the same molecule, the “efficacy for basal cell carcinomas” value in the data set with basal cell carcinomas [6] is on record as 60-70%. Moreover, the “patients with painful, severe inflammatory reaction” value in [7] is on record as 20-50%. The “inhibition of thymidylate synthase” value in the data set on thymidylate synthase is reported as “inhibitor of thymidylate synthase”. Also, in the data set on actinic keratoses [10] (setting [13]), the “clearance of the actinic keratosis lesions” value is on record as “incomplete clearance”. Also, in the data set on actinic keratoses [10] (four weeks after completion, starting count 15 (5-FU alone), 16 (combination)), the “actinic keratosis lesion count after treatment” value was found to be 14 lesions. Moreover, in the data set with actinic keratoses [8], the “efficacy for actinic keratoses” value is recorded as 50-60%. In addition, in the data set with basal cell carcinomas [11], the “basal cell carcinoma lesion outcome” value is “persisted”.

Turning to `Cn1c(=O)c2c(ncn2C)n(C)c1=O` [caffeine], in the data set on AK lesion, the “AK lesion clearance / efficacy versus 5FU alone control” value is given as “decreased efficacy”. The “trend in efficacy per patient” value in the data set on AK lesion (0.5% w/v methylxanthine with 5FU versus 5FU alone baseline) is given as “neither caffeine not theophylline showed any positive trends”.
